Data set [1] concerns aromatase activity in SK-BR-3 breast cancer cells. Description: Aromatase tritiated water-release assay in SK-BR-3 cell lines (first compound set). The note with it: SK-BR-3 cells. The data set is classed as cell-based, human.
Data set [2] deals with PGE2 production in MDA-MB-231 cells. Briefly: Enzyme immunoassay of PGE2 in MDA-MB-231 cells (COX-2 inhibitory activity). To be noted: 25 μM, 24 h (FIG. 4). The data set is classed as cell-based, human. Here is the method:
Enzyme Immunoassay of PGE2 in MDA-MB-231 Cells. MDA-MB-231 cells were obtained from ATCC (Rockville, Md.). Cell cultures were maintained in phenol red-free custom media (MEM, Earle's salts, 1.5× amino acids, 2× nonessential amino acids, L-glutamine, 1.5× vitamins, Gibco BRL) supplemented with 10% fetal bovine serum (FBS), 2 mM L-glutamine and 20 mg/L gentamycin. To study PGE2 synthesis in cell culture media, experiments were performed in […] Petri dishes. An aliquot of MDA-MB-231 cells (15×10^4 cells) were added to each dish and then incubated overnight to allow the cells to adhere to the dish. After that, cells were serum starved in defined media for 24 h. This step was followed by replacement of media with fresh media containing either vehicle (DMSO) or the indicated concentration of agents. After 24 h incubation at 37° C. the media were collected and the amount of PGE2 was determined by ELISA (Cayman Chemical) according to the protocol provided by the manufacturer. PGE2 concentration was normalized to total protein. Total proteins were extracted from adhered cells by 30 min treatment with 0.5 M NaOH at room temperature and shaking. Protein concentrations in these extracts were determined using a protein assay method (Bio-Rad Laboratories, Inc., Hercules, Calif.).

The subject of data set [3] is CYP19 mRNA expression in SK-BR-3 cells. Briefly: CYP19 mRNA expression by real-time RT-PCR in SK-BR-3 cells. The note with it: 25 μM, 24 h (FIG. 5). The data set is classed as cell-based, human. Here is the method: RNA Extraction. Total RNA was isolated using the TRIzol reagent according to the manufacturer's protocol. Total RNA pellets were dissolved in DNase- and RNase-free water and quantitated using a spectrophotometer. The quality of RNA samples was determined by electrophoresis through agarose gels and staining with ethidium bromide; the 18S and 28S rRNA bands were visualized under ultraviolet light.
(§1) cDNA Synthesis. Isolated total RNA (2 μg) was treated with DNase I Amplification grade, according to the recommended protocol to eliminate any DNA before reverse transcription. Treated total RNA was denatured at 65° C. for 5 min in the presence of 2.5 ng/μL random hexamers and 0.5 mM dNTP mix. The samples were snap-cooled on ice and centrifuged briefly. Complementary DNA (cDNA) was synthesized using Superscript II reverse transcriptase according to the recommended protocol. Briefly, the reactions were conducted in the presence of 1× First-Strand Buffer and 20 mM DTT at 42° C. for 50 min and consequently inactivated at 70° C. for 15 min. The cDNA generated was used as a template in realtime PCR reactions.
Real-Time PCR. Real-time PCR was performed using the Opticon 2 system from MJ Research (Waltham, Mass.). For the CYP19 total gene the PCR reaction mixture consisted of Taqman Universal PCR Master Mix (Applied Biosystems), 600 nM of CYP19 primer (sense: 5′-TGTCTCTTTGTTCTTCATGCTATTTCTC-3′ (SEQ ID NO: 1); antisense: 5′-TCACCAATAACAGTCTGGATTTCC-3′) (SEQ ID NO: 2); 250 nM Taqman probe (6FAM 5′-TGCAAAGCACCCTAATGTTGAAGAGGCAAT-3′TAMRA) (SEQ ID NO: 3) (Invitrogen), 18S rRNA (Applied Biosystems, Foster City, Calif.), and 2.0 μL of each RT sample in a final volume of 20 μL. The Taqman probe was designed to anneal to a specific sequence of the aromatase gene between the forward and the reverse primers. Cycling conditions were 50° C. for 2 mm and 95° C. for 10 mm, followed by 50 cycles at 95° C. for 15 s and 60° C. for 1 mm.
RNA extraction. Total RNA was isolated using the TRIzol reagent according to the manufacturer's protocol. Total RNA pellets were dissolved in DNase, RNase-free water and quantitated using a spectrophotometer. The quality of RNA samples was determined by electrophoresis through agarose gels and staining with ethidium bromide; the 18S and 28S rRNA bands were visualized under ultraviolet light.
as §1, with “synthesis.” for “Synthesis.”, “real-time” for “realtime”
Real-time PCR. Real-time PCR was performed using the Opticon™ 2 system from MJ Research (Waltham, Mass.). For the CYP19 total gene the PCR reaction mixture consisted of Taqman® Universal PCR Master Mix (Applied Biosystems), 600 nM of CYP19 primer (sense: 5′-TGTCTCTTTGTTCTTCATGCTATTTCTC-3′ (SEQ ID NO: 1); antisense: 5′-TCACCAATAACAGTCTGGATTTCC-3′) (SEQ ID NO: 2); 250 nM Taqman probe (6FAM 5′-TGCAAAGCACCCTAATGTTGAAGAGGCAAT-3′TAMRA) (SEQ ID NO: 3) (Invitrogen), and 2.0 μL of each cDNA sample in a final volume of 20 μL. […]

The subject of data set [4] is aromatase activity in SK-BR-3 breast cancer cells. Briefly: Aromatase tritiated water-release assay in SK-BR-3 cell lines (first compound set). It counts as cell-based, human. To be noted: SK-BR-3 cells; for IC50: 24 h treatment, five concentrations, each in triplicate, read-out: IC50 (μM), suppression of aromatase activity in SK-BR-3 breast cancer cells. Here is the method: Aromatase Tritiated Water-Release Assay in SK-BR-3 Cell Lines. SK-BR-3 cells were obtained from ATCC (Rockville, Md.). Cell cultures were maintained in phenol red-free custom media (MEM, Earle's salts, 1.5× amino acids, 2× nonessential amino acids, L-glutamine, 1.5× vitamins, Gibco BRL) supplemented with 10% fetal bovine serum (FBS), 2 mM L-glutamine, and 20 mg/L gentamycin. Measurement of aromatase enzyme activity was based on the tritium water release assay. 24 Cells in 100 mm Petri dish were treated with 0.1% DMSO (control), and inhibitors at the indicated concentrations. After 24 h, the media was changed and the cells were incubated with 100 nM [1â-3H]-androst-4-ene-3,17-dione ([…]) for 3 h. Subsequently, the reaction mixture was removed, and proteins were precipitated using 10% trichloroacetic acid at 42° C. for 20 min. After a brief centrifugation, the media was extracted three times with an equal amount of chloroform to extract unused substrate and further dextran-treated charcoal. After centrifugation, a 250-μL aliquot containing the product was counted in 5 mL of liquid scintillation mixture. Results were corrected for blanks and for the cell contents of culture flasks, and results were expressed as picomoles of 3H2O formed per hour incubation time per million live cells (pmol/h/10^6 cells). To determine the amount of cells in each flask, the cells were trypsinized and analyzed using the diphenylamine DNA assay adapted to a 96-well plate. (Natarajan N.; Shambaugh, G. E., 3rd; Elseth K. M.; Haines G. K.; Radosevich J. A. Adaptation of the diphenylamine (DPA) assay to a 96-well plate tissue culture format and comparison with the MTT assay. Biotechniques 1994, 17, 166-171; incorporated herein by reference). IC50 sigmoidal dose-response data were analyzed with Microsoft Excel and the Graphpad Prism (Version 3.0) program.

Take `CN(c1ccc([N+](=O)[O-])cc1OC1CCCCC1)S(C)(=O)=O` [Compound 17, N-Methyl-N-(2-cyclohexyloxy-4-nitrophenyl)methanesulfonamide]: the melting point lay in the range of 129 to 132 °C. Further, the “time-course of suppression of aromatase activity” value (“time-course” for short) in data set [1] (2 μM) is given as “prolonged reversible suppression of aromatase”. Besides, the “PGE2 production (COX-2 inhibitory activity)” value in data set [2] was “did not show any inhibitory activity”. In addition, the “CYP19 gene expression relative to control” value in data set [3] is reported as “significantly decreased CYP19 gene expression”. Besides, the 50% inhibitory concentration (IC50) in data set [4] was 0.47 µM.
`CCC(CC)Oc1cc([N+](=O)[O-])ccc1NS(C)(=O)=O` [Compound 13, N-(2-(1-Ethyl-propyloxy-4-nitrophenyl))methanesulfonamide] had a melting point of 100 to 102 °C. For the same compound, the “PGE2 production (COX-2 inhibitory activity)” value in data set [2] was “significantly decrease in PGE2 production”. The “CYP19 gene expression relative to control” value in data set [3] is on record as “significantly decreased CYP19 gene expression”. Moreover, the IC50 in data set [4] was found to be 0.3 µM.
As for `CS(=O)(=O)Nc1ccc([N+](=O)[O-])cc1OC1CCCCC1` [NS-398, N-(2-Cyclohexyloxy-4-nitrophenyl)methanesulfonamide, reference compound], the “time-course” value in data set [1] (2 μM) was “prolonged reversible suppression of aromatase”. The “PGE2 production (COX-2 inhibitory activity)” value in data set [2] was “significantly decrease in PGE2 production”. Further, the “CYP19 gene expression relative to control” value in data set [3] was “significantly decreased CYP19 gene expression”. Also, the IC50 in data set [4] worked out at 0.68 µM.
Turning to `N#Cc1ccc(C(c2ccc(C#N)cc2)n2cncn2)cc1` [letrozole, reference compound], the “time-course” value in data set [1] (10 nM) was “acute inhibition”. Further, the “increase of aromatase activity after removing the drug” value in data set [4] (letrozole 10 nM, after removal of drug) is reported as 150%.
In turn, `CCC(CC)Oc1cc([N+](=O)[O-])ccc1N(C)S(C)(=O)=O` [Compound 22, N-Methyl-N-(2-(1-ethyl-propyloxy-4-nitrophenyl))methanesulfonamide] returned a melting point of 89 to 90 °C. Besides, in data set [2], the “PGE2 production (COX-2 inhibitory activity)” value is on record as “did not show any inhibitory activity”. Also, the “CYP19 gene expression relative to control” value in data set [3] is on record as “significantly decreased CYP19 gene expression”. In data set [4], the concentration for half-maximal inhibition (IC50) was 0.23 µM.
Regarding `C[C@@H]1C[C@@H]([C@H](O)CC2CC(=O)NC(=O)C2)C(=O)[C@@H](C)C1` [Cycloheximide], the “time-course” value in data set [1] (10 μM) was “showed similar results”.

Source of the values: US7741520B2, “Sulfonanilide analogs as selective aromatase modulators (SAMs)” (The Ohio State University Research Foundation, priority 2006, dated 2010).
